From patent US12264204B2, “Peptide for improving memory and preventing or alleviating cognitive dysfunction, composition comprising the same, and method for producing the same” (NATURESENSE CO., LTD., priority 2019, dated 2025)
Where no end group is shown, it is not given here.

Test system: Sprague-Dawley rats
Test: Delayed alternation test (T-maze) for cognitive function improvement
Type: in vivo, rat
Conditions: oral, 100 mg/ml solution; for effect of improving cognitive function and memory (T-maze performance): delay of 5 seconds between trials, 9 days training; for effect of improving cognitive function and memory in the early stage of administration: delay of 5 seconds, early stage of 9-day training
Description: Experimental animals were white male Sprague-Dawley rats (140 to 180 g, Daehan Biolink Co., Ltd.). These rats were housed in cages (4 rats per cage) in a constant environment (temperature: 25±1° C., and relative humidity: 60±10%) for one week and allowed to access water ad libitum. At this time, the feed was fed in a limited manner so that 80% of the body weight was kept. In this experiment, a total of 50 rats were used. The rats were adapted to the maze for 5 minutes a day for 3 days before training.
In the first trial, the animals were adapted to the start arm. The first trial is a “forced-choice trial”, in which one arm was blocked with the door and when the animal entered the other arm, the rear was blocked with the door. The animal was considered as entering the arm when all four paws passed through the entrance. The animal was allowed to eat feed in the corresponding arm for 60 seconds. The next trials were “free-choice trials”, in which the animal was free to choose the direction of the arm (left or right) starting from the start arm. The animal was made to be able to eat food as a reward only when it entered the arm that entered in the previous trial and the opposite arm.
The trials were performed with delays of 5 seconds and 20 seconds, and the cut-off time of each trial was set to 60 seconds. The number of times the animal entered the forced-choice arm and the time taken to enter the arm were measured. The same procedure was performed for 9 days with 10 trials per day, followed by assessment.
The silk peptides NF1, NF2 and TF1 to TF9 were prepared into solutions, each containing 100 mg/ml of each peptide, and were administered orally. All the samples were dissolved in distilled water and administered orally.

Ile-Gly-Val-Ala-Gly (IGVAG; printed: Ile-Gly-Val-Ala-Gly) [Peptide F3]
effect of improving cognitive function and memory (T-maze performance): high effect of improving cognitive function and memory, compared to P2-2 | effect of improving cognitive function and memory in the early stage of administration: high activity of improving cognitive function and memory in an early stage, compared to P2-2

Ala-Gly-Gly-Ala (AGGA; printed: Ala-Gly-Gly-Ala) [Peptide P4-1]
effect of improving cognitive function and memory in the early stage of administration: significantly increased effect of improving cognitive function and memory in the early stage of administration

Ile-Gly-Val-Ala-Tyr (IGVAY; printed: Ile-Gly-Val-Ala-Tyr) [Peptide F2]
effect of improving cognitive function and memory (T-maze performance): high effect of improving cognitive function and memory, compared to P2-2 | effect of improving cognitive function and memory in the early stage of administration: high activity of improving cognitive function and memory in an early stage, compared to P2-2

YGGYGI [Peptide P5-1]
effect of improving cognitive function and memory (T-maze performance): clearly better effect of improving cognitive function and memory than P4-2 | effect of improving cognitive function and memory in the early stage of administration: excellent activity of improving cognitive function and memory in the early stage

Tyr-Gly-Ile-Ala (YGIA; printed: Tyr-Gly-Ile-Ala) [Peptide P1-6]
effect of improving cognitive function and memory (T-maze performance): increased effect of improving cognitive function and memory | effect of improving cognitive function and memory in the early stage of administration: significantly increased effect of improving cognitive function and memory in the early stage of administration

Ile-Gly-Tyr-Val (IGYV; printed: Ile-Gly-Tyr-Val) [Peptide P2-1]
effect of improving cognitive function and memory (T-maze performance): relatively low

Ile-Gly-Ala-Tyr (IGAY; printed: Ile-Gly-Ala-Tyr) [Peptide P2-3]
effect of improving cognitive function and memory (T-maze performance): relatively low

Ile-Gly-Val-Ala (IGVA; printed: Ile-Gly-Val-Ala) [Peptide P2-2]
effect of improving cognitive function and memory (T-maze performance): relatively better

Tyr-Gly-Gly-Tyr (YGGY; printed: Tyr-Gly-Gly-Tyr) [Peptide P4-2]
effect of improving cognitive function and memory (T-maze performance): increased effect of improving cognitive function and memory

Tyr-Gly-Ala-Ala (YGAA; printed: Tyr-Gly-Ala-Ala) [Peptide P1-3]
effect of improving cognitive function and memory (T-maze performance): increased effect of improving cognitive function and memory

Tyr-Gly-Gly-Ala (YGGA; printed: Tyr-Gly-Gly-Ala) [Peptide P1-2]
effect of improving cognitive function and memory (T-maze performance): increased effect of improving cognitive function and memory

Ile-Gly-Val-Ala-Thr (IGVAT; printed: Ile-Gly-Val-Ala-Thr) [Peptide F1]
effect of improving cognitive function and memory (T-maze performance): high effect of improving cognitive function and memory, compared to P2-2 | effect of improving cognitive function and memory in the early stage of administration: high activity of improving cognitive function and memory in an early stage, compared to P2-2

Ile-Gly-Gln-Gly (IGQG; printed: Ile-Gly-Gln-Gly) [Peptide P2-4]
effect of improving cognitive function and memory (T-maze performance): relatively low

Tyr-Gly-Val-Ile (YGVI; printed: Tyr-Gly-Val-Ile) [Peptide P1-5]
effect of improving cognitive function and memory (T-maze performance): increased effect of improving cognitive function and memory
